This experiment concerns Cryptococcus neoformans ATCC 90113. Briefly: Antimicrobial microdilution assay against Cryptococcus neoformans (modified CLSI/NCCLS, optical density). Type of experiment: cell-based. As to conditions: for X more potent than Amphotericin B: C. neoformans, ratio of molar IC50 to Amphotericin B. Here is the method: Summary: Various macrocyclic derivatives constructed in accordance with the presently disclosed and/or claimed inventive concept(s) were screened in vitro against Cryptococcus neoformans ATCC 90113 using a microdilution assay. The minimum fungicidal concentration (MFC), the lowest test concentration that kills the organism, was determined in broth media.
Antimicrobial assay: Cryptococcus neoformans ATCC 90113 were obtained from the American Type Culture Collection (Manassas, VA.). The susceptibility testing was performed using a modified version of the CLSI (formerly NCCLS) methods (see below), and optical density was used to monitor growth. Samples were serially diluted in 20% DMSO/saline and transferred in duplicate to 96-well flat bottom microplates. Microbial inocula were prepared by correcting the OD630 of cell/spore suspensions in incubation broth RPMI at pH 6.0 to afford final desired target inocula. Amphotericin B (“AMB;” ICN Biomedicals, OH) was used as drug control. The organism concentration was read at 630 nm using the Biotek Powerwave XS plate reader (Bio-Tek instruments, VT) prior to and after incubation. Minimum fungicidal concentrations were determined by removing 5 μL from each clear well, transferring to agar, and incubating until growth was seen. The MFC/MBC is defined as the lowest test concentration that kids the organism (allows no growth on agar).
References for NCCLS methods referenced above: 1 NCCLS. Reference method for broth dilution antifungal susceptibility testing of yeasts, Vol. 22. Approved standard, 2nd ed. Wayne: National Committee for Clinical Laboratory Standards; 2002: 1-51. 2 NCCLS. Reference method for broth dilution antifungal susceptibility testing of conidium forming filamentous fungi, Vol. 18. Proposed standard M38-P. Wayne: National Committee for Clinical Laboratory Standards; 1998: 1-39. 3 NCCLS. Methods for dilution antimicrobial susceptibility tests for bacteria that grow aerobically, Vol. 20. NCCLS Document M7-A5. Wayne: National Committee for Clinical Laboratory Standards; 2000: 1-58.
The term “IC50” as used herein will be understood to refer to a test concentration in mol/L that affords 50% inhibition of the microbe relative to negative and positive controls. […] The abbreviation “MFC” as used herein will be understood to refer to a minimum fungicidal concentration, or the lowest test concentration in mol/L that kills the organism. All IC50s are calculated using the XLfit® fit curve fitting software (ID Business Solutions Ltd, Guildford, Surrey, UK).
General Experimental Procedures. All organisms were obtained from the American Type Culture Collection (Manassas, VA) and include the fungi Candida albicans ATCC 90028, C. glabrata ATCC 90030, C. krusei ATCC 6258, and Cryptococcus neoformans ATCC 90113, and the bacteria Staphylococcus aureus ATCC 29213 and methicillin-resistant S. aureus ATCC 33591 (MRS). All organisms were tested using modified versions of the CLSI (formerly NCCLS) methods. For all organisms, optical density was used to monitor growth (NCCLS, Reference Method for Broth Dilution Antifungal Susceptibility Testing of Yeasts; Approved Standard M27-A2. National Committee on Clinical Laboratory Standards, 2002 22 (15); and NCCLS, Methods for Dilution Antimicrobial Susceptibility Tests for Bacteria that Grow Aerobically; Approved Standard, Seventh Edition M7-A7. National Committee on Clinical Laboratory Standards, 2006. 26(2)).
Samples (dissolved in DMSO) were serially-diluted in 20% DMSO/saline and transferred (10 μL) in duplicate to 96 well flat bottom microplates.

Setting [1] is: in vitro, C. neoformans ATCC 90113.
Where [2] appears, read: in vitro, C. neoformans ATCC 90113, read-out: C. neoformans IC50 (mol/L).

pIC50: −log10 of the molar value. Several values for one entry are separate records, joined by “and”; a condition that tells them apart may be missing. Equal entries are not always repeated. Where two headings read alike, the source gives them in different places. Some results are limits rather than exact numbers.

On to `CC(=O)[O-].CC(=O)[O-].F[P-](F)(F)(F)(F)F.F[P-](F)(F)(F)(F)F.[Ni+2].[Ni+2].c1cc(CN2CCCN3CCNCCCN(CC3)CC2)ccc1CN1CCCN2CCNCCCN(CC2)CC1` [TJH415B, [Ni2(H2-p-CB-cyclams)(OAc)2][PF6]2], for which the “X more potent than Amphotericin B” value came out at 0.30. Moreover, the “C. neoformans IC50” value under setting [1] turned out to be 0.850 µg/mL. Besides, the pIC50 under setting [2] was 6.10.

In the case of `CN1CCN2CCN(CC1)CCN(Cc1nc3ccccc3[nH]1)CC2` [SJA220, CB-BI-cyclen], the “X more potent than Amphotericin B” value came out at 0.02. For the same molecule, under setting [1], the “C. neoformans IC50” value was 5.160 µg/mL. The pIC50 under setting [2] is 4.82.

Consider `CC(=O)[O-].CC(=O)[O-].F[P-](F)(F)(F)(F)F.F[P-](F)(F)(F)(F)F.O.O.[Zn+2].[Zn+2].c1cc(CN2CCNCCN3CCN(CC3)CC2)cc(CN2CCNCCN3CCN(CC3)CC2)c1` [OB37, [Zn2(m-SB-Cyclens)(OAc)2][PF6]2•2H2O], for which the “X more potent than Amphotericin B” value is 0.32. Moreover, the “C. neoformans IC50” value under setting [1] is not above 0.800 µg/mL.

For “[Cu2(p-SB-cyclam-cyclen)(OAc)1.2][PF6]2.8 [CMB018]”, the “X more potent than Amphotericin B” value was found to be 0.09. The “C. neoformans IC50” value under setting [1] amounted to 3.020 µg/mL. For the same molecule, the pIC50 under setting [2] is 5.57.

As to m-CB-cyclam-cyclen [DGJ036], the “X more potent than Amphotericin B” value is 0.02. Under setting [1], the “C. neoformans IC50” value was 5.800 µg/mL. The pIC50 under setting [2] is 4.98.

In the case of `c1cc(CN2CCNCCCN3CCN(CC3)CC2)cc(CN2CCNCCCN3CCN(CC3)CC2)c1` [OB46, m-SB-Homocyclens], the “X more potent than Amphotericin B” value is recorded as 0.03. The “C. neoformans IC50” value under setting [1] stood at 4.850 µg/mL. The pIC50 under setting [2] is 5.04.

With “[Zn2(m-CB-Homocyclens)(OAc)0.5][PF6]3.5 [CDG037]”, the “X more potent than Amphotericin B” value turned out to be 0.18. In addition, the “C. neoformans IC50” value under setting [1] was found to be 1.620 µg/mL. Under setting [2], the pIC50 was 5.88.

Turning to [Zn(Me1-SB-Cyclam)(C2H3O2)]PF6 [DLM32], the “X more potent than Amphotericin B” value amounted to 0.01. Besides, under setting [1], the “C. neoformans IC50” value was found to be 17.280 µg/mL. In addition, the pIC50 under setting [2] was 4.47.

Turning to `CN1CCCN2CCN(C)CCN(CC1)CC2.F[P-](F)(F)(F)(F)F.[Cl-].[Cl-].[Co+3]` [DGJ031, [Co(B13N4)Cl2]PF6], the “X more potent than Amphotericin B” value came out at 0.02. Under setting [1], the “C. neoformans IC50” value amounted to 4.980 µg/mL. Under setting [2], the pIC50 is 5.01.

For the molecule `C1CNCCN2CCCNCCN(C1)CCC2.CC(=O)[O-].F[P-](F)(F)(F)(F)F.F[P-](F)(F)(F)(F)F.F[P-](F)(F)(F)(F)F.[NH4+].[NH4+].[Ni+2]` [SLK39B, [Ni(H2PBCyclam)(OAc)]PF6•2NH4PF6], the “X more potent than Amphotericin B” value came out at 0.03. Further, the “C. neoformans IC50” value under setting [1] is 5.890 µg/mL. The pIC50 under setting [2] was 5.15.

On to `C1CNCCN2CCCNCCN(C1)CCC2.O.O.O.[Cl-].[Cl-].[Cl-].[Mn+3]` [SLK37, Mn(H2PBCyclam)Cl3•3H2O], for which the “X more potent than Amphotericin B” value worked out at 0.06. Also, the “C. neoformans IC50” value under setting [1] was 1.780 µg/mL. Also, the pIC50 under setting [2] was 5.41.

Consider `CN1CCCN2CCN(CCCN(Cc3ccc(CN4CCCN5CCN(C)CCCN(CC5)CC4)cc3)CC2)CC1` [KS23, p-CB-cyclams], for which the “X more potent than Amphotericin B” value is on record as 0.02. For the same molecule, the “C. neoformans IC50” value under setting [1] turned out to be 8.200 µg/mL. In addition, the pIC50 under setting [2] is 4.85.

In the case of “[Ni2(p-SB-cyclam-cyclen)(OAc)][PF6]3•H2O [CMB017A]”, the “X more potent than Amphotericin B” value is 0.06. In addition, under setting [1], the “C. neoformans IC50” value was found to be 4.940 µg/mL. In addition, the pIC50 under setting [2] was 5.37.

Consider `C1CNCCN2CCCNCCN(C1)CCC2.CC(=O)[O-].F[P-](F)(F)(F)(F)F.F[P-](F)(F)(F)(F)F.F[P-](F)(F)(F)(F)F.[Cu+2].[NH4+].[NH4+]` [SLK40B, [Cu(H2PBCyclam)(OAc)]PF6•2NH4PF6], for which the “X more potent than Amphotericin B” value was determined as 0.03. The “C. neoformans IC50” value under setting [1] is 6.930 µg/mL. Under setting [2], the pIC50 is 5.08.

For the molecule `Clc1ccc2c(N3CCNCCN(c4ccnc5cc(Cl)ccc45)CCNCC3)ccnc2c1.[Cl-].[Cl-].[Mn+2]` [K-PAA2-0004-P8-TJH410, {[Mn(4,10-bis(7-chloroquinoline)cyclen]Cl2}], the “X more potent than Amphotericin B” value was 0.04. Further, the “C. neoformans IC50” value under setting [1] was 4.123 µg/mL. For the same molecule, the pIC50 under setting [2] was 5.18.

Regarding `CC(=O)[O-].CC(=O)[O-].CN1CCN2CCN(CC1)CCN(Cc1ccc(CN3CCN4CCN(C)CCN(CC4)CC3)cc1)CC2.F[P-](F)(F)(F)(F)F.F[P-](F)(F)(F)(F)F.[Cu+2].[Cu+2]` [JAV06, [Cu2(p-CB-Cyclens)(OAc)2][PF6]2], the “X more potent than Amphotericin B” value was 0.02. For the same molecule, the “C. neoformans IC50” value under setting [1] is 10.900 µg/mL. For the same molecule, the pIC50 under setting [2] is 4.99.

With `CC(=O)[O-].CC(=O)[O-].CN1CCCN2CCN(CCCN(Cc3ccc(CN4CCCN5CCN(C)CCCN(CC5)CC4)cc3)CC2)CC1.F[P-](F)(F)(F)(F)F.F[P-](F)(F)(F)(F)F.[Co+2].[Co+2]` [KS40, [Co2(p-CB-cyclams)(OAc)2](PF6)2], the “X more potent than Amphotericin B” value was 13 and 13.21. For the same molecule, the “C. neoformans IC50” value under setting [1] was 0.020 µg/mL. Under setting [2], the pIC50 is not below 7.74. In addition, the pIC50 (read-out: IC50 against C. neoformans) is more than 7.74.

Turning to `C1CNCCN2CCCNCCN(C1)CCC2.O.[Cl-].[Cl-].[Cl-].[Fe+3]` [SLK36, Fe(H2PBCyclam)Cl3•H2O], the “X more potent than Amphotericin B” value is 0.03. Besides, the “C. neoformans IC50” value under setting [1] stood at 3.330 µg/mL. Further, the pIC50 under setting [2] was 5.10.

In the case of [Co(Me1Py1-CB-Cyclam)Cl]PF6 [DGJ012], the “X more potent than Amphotericin B” value came to 0.03. In addition, the “C. neoformans IC50” value under setting [1] was 4.730 µg/mL. The pIC50 under setting [2] is 5.08.

With “[Zn2(m-SB-cyclam-cyclen)(OAc)2][PF6]2•3.3H2O [CMB035]”, the “X more potent than Amphotericin B” value came to 0.33. In addition, the “C. neoformans IC50” value under setting [1] was not above 0.800 µg/mL. Besides, the pIC50 under setting [2] was 6.15.

As for `[Cl][Fe-2]([Cl])([Cl])[Cl].[Cl][Fe-2]([Cl])([Cl])[Cl].[Fe+2].[Fe+2].c1cc(CN2CCCN3CCNCCCN(CC3)CC2)ccc1CN1CCCN2CCNCCCN(CC2)CC1` [TJH413B, [Fe2(H2-p-CB-cyclams)][FeCl4]2], the “X more potent than Amphotericin B” value stood at 0.03. For the same molecule, under setting [1], the “C. neoformans IC50” value amounted to 7.380 µg/mL. Besides, the pIC50 under setting [2] is 5.16.

For the molecule `O=[N+]([O-])c1ccc(Cn2c(CN3CCNCCN4CCN(CC4)CC3)nc3ccccc32)cc1` [SJA229, SB-BINO2-cyclen], the “X more potent than Amphotericin B” value was 0.06. Further, under setting [1], the “C. neoformans IC50” value came out at 1.890 µg/mL. For the same molecule, under setting [2], the pIC50 is 5.39.

As to “[Cu2(m-SB-cyclam-cyclen)(OAc)][PF6]3•2H2O [CMB034]”, the “X more potent than Amphotericin B” value was found to be 0.35. Under setting [1], the “C. neoformans IC50” value was not above 0.800 µg/mL. The pIC50 under setting [2] was 6.17.

With `CC(=O)[O-].CC(=O)[O-].CN1CCN2CCN(CC1)CCN(Cc1nc3ccccc3[nH]1)CC2.[Zn+2]` [SJA225, [Zn(CB-BI-cyclen)(OAc)2]], the “X more potent than Amphotericin B” value was determined as 0.01. For the same molecule, the “C. neoformans IC50” value under setting [1] came to 5.690 µg/mL.

Consider `CC(=O)[O-].CC(=O)[O-].O=[N+]([O-])c1ccc(Cn2c(CN3CCNCCN4CCN(CC4)CC3)nc3ccccc32)cc1.[Ni+2]` [SJA232, [Ni(SB-BINO2-cyclen)(OAc)2]], for which the “X more potent than Amphotericin B” value is reported as 0.02. Besides, the “C. neoformans IC50” value under setting [1] was 5.070 µg/mL. The pIC50 under setting [2] was 4.96.

The values above are taken from patent US12139481B2, “Compositions comprising macrocycle derivatives incorporating bridged macrocycles and methods of producing and using same” (Southwestern Oklahoma State University, priority 2015, dated 2024).
